Reference: patent US20070128217A1 (priority 2003, published 2007)

Legend:
[1] = system: control sera (pooled serum of ten healthy LUMC hospital workers; commercial negative donor pooled serum from the Dutch bloodbank); assay type: binding, human; parameters: Binding of Control serum LUMC to linear peptides / Binding of Control serum Blood-bank to linear peptides / Binding of Control serum LUMC to looped peptides / Binding of Control Serum Blood-Bank to Looped peptides / Binding of Control serum LUMC to linear peptides of the protein M of SARS-CoV Urbani / Binding of Control serum Blood-bank to linear peptides of the protein M of SARS-CoV Urbani / Binding of Control serum LUMC to looped peptides of the protein M of SARS-CoV Urbani / Binding of Control Serum Blood-Bank to Looped peptides of the protein M of SARS-CoV Urbani: unit not given here
[2] = system: rabbit serum obtained by immunizing a rabbit with the SARS-CoV strain Frankfurt 1; assay type: binding; parameters: Binding of a rabbit serum to linear peptides / Binding of a rabbit serum to looped peptides / Rabbit serum linear peptides / Rabbit serum looped peptides / Binding of a rabbit serum to linear peptides of protein N of SARS-CoV Urbani (Rabbit serum linear peptides) / Binding of a rabbit serum to looped/cyclic peptides of protein N of SARS-CoV Urbani (Rabbit serum looped peptides): unit not given here
[3] = system: antibodies in sera from SARS patients (sera 1a, 1b, 2, 6, 37, 62, London, SARS-yellow, SARS-green); assay type: binding, human; parameters: Binding of serum 6 to linear peptides of protein X1 of SARS-CoV Urbani / Binding of serum 37 to linear peptides of protein X1 of SARS-CoV Urbani / Binding of serum 6 to looped/cyclic peptide (PEPSCAN-ELISA) / Binding of serum 37 to looped/cyclic peptide (PEPSCAN-ELISA) / Binding of serum 37 to looped/cyclic peptides of protein X1 of SARS-CoV Urbani / Binding of serum 6 to linear peptides of protein X2 / Binding of serum 37 to linear peptides of protein X2 / Binding of serum 37 to looped/cyclic peptides of protein X2 of SARS-CoV Urbani / Binding of serum 6 to linear peptides of protein M of SARS-CoV Urbani / Binding of serum 37 to linear peptides of protein M of SARS-CoV Urbani / Binding of serum 6 to looped/cyclic peptides of protein M of SARS-CoV Urbani / Binding of serum 37 to looped/cyclic peptides of protein M of SARS-CoV Urbani / Binding of serum 6 to linear peptides of protein X3 of SARS-CoV Urbani / Binding of serum 37 to linear peptides of protein X3 of SARS-CoV Urbani / Binding of serum 37 to looped/cyclic peptides of protein X3 of SARS-CoV Urbani / Binding of serum 6 to linear peptides of protein X4 of SARS-CoV Urbani / Binding of serum 37 to linear peptides of protein X4 of SARS-CoV Urbani / Binding of serum 37 to looped/cyclic peptides of protein X4 of SARS-CoV Urbani / Binding of serum 6 to linear peptides of protein X5 of SARS-CoV Urbani / Binding of serum 37 to linear peptides of protein X5 of SARS-CoV Urbani / Binding of serum 37 to looped/cyclic peptides of protein X5 of SARS-CoV Urbani / Binding of serum 6 to linear peptides of protein N of SARS-CoV Urbani / Binding of serum 37 to linear peptides of protein N of SARS-CoV Urbani / Binding of serum 6 to linear peptide (PEPSCAN-ELISA) / Binding of serum 1a to looped/cyclic peptides of protein N of SARS-CoV Urbani / Binding of serum 1b to looped/cyclic peptides of protein N of SARS-CoV Urbani / Binding of serum 2 to looped/cyclic peptides of protein N of SARS-CoV Urbani / Binding of serum 6 to looped/cyclic peptides of protein N of SARS-CoV Urbani / Binding of serum 37 to looped/cyclic peptides of protein N of SARS-CoV Urbani / Binding of serum 62 to looped/cyclic peptides of protein N of SARS-CoV Urbani / Binding of serum London to looped/cyclic peptides of protein N of SARS-CoV Urbani / Binding of serum SARS-green to looped/cyclic peptides of protein N of SARS-CoV Urbani: unit not given here

In the case of ARTRSMWSFNPETNI, the “Binding of Control Serum Blood-Bank to Looped peptides of the protein M of SARS-CoV Urbani” value [1] is reported as 0.6, the “Binding of Control serum Blood-bank to linear peptides of the protein M of SARS-CoV Urbani” value [1] is reported as 0.7 and the “Binding of Control serum LUMC to linear peptides of the protein M of SARS-CoV Urbani” value [1] is reported as 0.9. For the same sequence, the “Binding of Control serum LUMC to looped peptides of the protein M of SARS-CoV Urbani” value [1] was 0.7, the “Rabbit serum linear peptides” value [2] was 0.2 and the “Rabbit serum looped peptides” value [2] was 0.3. The “Binding of serum 1a to linear peptides of protein M of SARS-CoV Urbani” value [3] was 0.9, the “Binding of serum 1a to looped/cyclic peptides of protein M of SARS-CoV Urbani” value [3] was 0.7 and the “Binding of serum 1b to linear peptides of protein M of SARS-CoV Urbani” value [3] was 0.8. The “Binding of serum 1b to looped/cyclic peptides of protein M of SARS-CoV Urbani” value [3] was 0.1, the “Binding of serum 2 to linear peptides of protein M of SARS-CoV Urbani” value [3] was 0.6 and the “Binding of serum 2 to looped/cyclic peptides of protein M of SARS-CoV Urbani” value [3] was 0.9. For the same sequence, the “Binding of serum 6 to linear peptides of protein M of SARS-CoV Urbani” value [3] was 0.7, the “Binding of serum 6 to looped/cyclic peptides of protein M of SARS-CoV Urbani” value [3] was 0.6 and the “Binding of serum 37 to linear peptides of protein M of SARS-CoV Urbani” value [3] was 0.6. The “Binding of serum 37 to looped/cyclic peptides of protein M of SARS-CoV Urbani” value [3] was 0.8, the “Binding of serum 62 to linear peptides of protein M of SARS-CoV Urbani” value [3] was 0.5 and the “Binding of serum 62 to looped/cyclic peptides of protein M of SARS-CoV Urbani” value [3] was 0.8. The “Binding of serum London to linear peptides of protein M of SARS-CoV Urbani” value [3] was 0.4, the “Binding of serum London to looped/cyclic peptides of protein M of SARS-CoV Urbani” value [3] was 0.2 and the “Binding of serum SARS-green to linear peptides of protein M of SARS-CoV Urbani” value [3] was 0.7. The “Binding of serum SARS-green to looped/cyclic peptides of protein M of SARS-CoV Urbani” value [3] was 0.1, the “Binding of serum SARS-yellow to linear peptides of protein M of SARS-CoV Urbani” value [3] was 0.3 and the “Binding of serum SARS-yellow to looped/cyclic peptides of protein M of SARS-CoV Urbani” value [3] was 0.7.

In the case of LCKHKKVSTNLCTHS, the “Binding of Control Serum Blood-Bank to Looped peptides” value [1] is reported as 0.3, the “Binding of Control serum Blood-bank to linear peptides” value [1] is reported as 0.8 and the “Binding of Control serum LUMC to linear peptides” value [1] is reported as 0.7. For the same sequence, the “Binding of Control serum LUMC to looped peptides” value [1] was 0.4, the “Binding of a rabbit serum to linear peptides” value [2] was 0.3 and the “Binding of a rabbit serum to looped peptides” value [2] was 0.3. The “Recognition of the peptide by sera of SARS-CoV infected individuals, and form (linear, looped/cyclic) in which it is recognized” value [3] was “recognized in linear form”.

In the case of SLLKTHRMCKYTQST, the “Binding of Control Serum Blood-Bank to Looped peptides” value [1] is reported as 0.4, the “Binding of Control serum Blood-bank to linear peptides” value [1] is reported as 0.9 and the “Binding of Control serum LUMC to linear peptides” value [1] is reported as 0.8. The “Binding of Control serum LUMC to looped peptides” value [1] was 0.4, the “Binding of a rabbit serum to linear peptides” value [2] was 0.3 and the “Binding of a rabbit serum to looped peptides” value [2] was 0.3. The “Binding of serum 1a to linear peptides of protein X2” value [3] was 0.8, the “Binding of serum 1a to looped/cyclic peptides of protein X2 of SARS-CoV Urbani” value [3] was 0.3 and the “Binding of serum 1b to linear peptides of protein X2” value [3] was 0.6. The “Binding of serum 1b to looped/cyclic peptides of protein X2 of SARS-CoV Urbani” value [3] was 0.2, the “Binding of serum 2 to linear peptides of protein X2” value [3] was 0.6 and the “Binding of serum 2 to looped/cyclic peptides of protein X2 of SARS-CoV Urbani” value [3] was 0.1. The “Binding of serum 6 to linear peptides of protein X2” value [3] was 0.6, the “Binding of serum 6 to looped/cyclic peptides of protein X2 of SARS-CoV Urbani” value [3] was 0.2 and the “Binding of serum 37 to linear peptides of protein X2” value [3] was 0.6. For the same sequence, the “Binding of serum 37 to looped/cyclic peptides of protein X2 of SARS-CoV Urbani” value [3] was 0.3, the “Binding of serum 62 to linear peptides of protein X2” value [3] was 0.7 and the “Binding of serum 62 to looped/cyclic peptides of protein X2 of SARS-CoV Urbani” value [3] was 0.4. For the same sequence, the “Binding of serum London to linear peptides of protein X2” value [3] was 0.6, the “Binding of serum London to looped/cyclic peptides of protein X2 of SARS-CoV Urbani” value [3] was 0.2 and the “Binding of serum SARS-green to linear peptides of protein X2” value [3] was 0.7. The “Binding of serum SARS-green to looped/cyclic peptides of protein X2 of SARS-CoV Urbani” value [3] was 0.1, the “Binding of serum SARS-yellow to linear peptides of protein X2” value [3] was 0.7 and the “Binding of serum SARS-yellow to looped/cyclic peptides of protein X2 of SARS-CoV Urbani” value [3] was 0.2.
